Experimental data taken from PMC4014698 (Pharmaceuticals, 2014).
Values after ≈ are worked out from the molar mass of the structure shown. Non-standard residues stand in square brackets, D forms with d. Residues, ends and D or L forms follow the SMILES beside them.

What was measured:
[1] = tested on: Pseudomonas aeruginosa (6 different isolates); details: geometric mean of the MIC values from 6 different isolates of P. aeruginosa; Table 3B
Excerpt: (§1) P. aeruginosa strains used are as follows: strain PAO1 was isolated from a human wound in 1955 in Australia; strain WR5 was isolated from a burn patient at Walter Reed Army Hospital, Washington, DC, USA, in 1976 and is a natural toxA^− mutant, but is virulent in experimental mouse models; strain PAK was originally isolated at Memorial University, St. John’s, Newfoundland, Canada, and is widely used in the analysis of pili; strain PA14 was originally isolated as a clinical isolate in 1995 at the Massachusetts General Hospital, Boston, MA, USA and is virulent in a variety of plant and animal models of infection; strain M2 was originally isolated in 1975 from the gastrointestinal tract of a healthy CF1 mouse, University of Cincinnati College of Medicine, and Shriners Burns Institute, Cincinnati, OH, USA and is virulent in a burn mouse model of P. aeruginosa infection; and strain CP204 was isolated from a cystic fibrosis patient in 1989 at the National Jewish Medical and Research Center, Denver, CO, USA. All strains have been maintained at −80 °C in the laboratory of Michael Vasil, University of Colorado, School of Medicine.
(§2) The minimal inhibitory concentration (MIC) is defined as the lowest peptide concentration that inhibited bacterial growth. MICs were measured by a standard microtiter dilution method in Mueller Hinton (MH) medium. Briefly, cells were grown overnight at 37 °C in MH broth and were diluted in the same medium. […] The plates were incubated at 37 °C for 24 h, and the MICs were determined.
Geometric mean of MIC values was calculated to provide an overall view of antimicrobial activity of different analogs.

[2] = tested on: Acinetobacter baumannii (11 different isolates); type: cell-based; details: geometric mean of the MIC values from 11 different isolates of A. baumannii; Table 3A
Excerpt: (§3) All the A. baumannii strains used in this study were (1) obtained from the collection of Dr. Anthony A. Campagnari at the University of Buffalo and originally isolated from different patients and organs/tissues (strain 649, blood; strain 689, groin; strain 759, gluteus; strain 821, urine; strain 884, axilla; strain 899, perineum; strain 964, throat; strain 985, pleural fluid and strain 1012, sputum); (2) were purchased from the American Type Culture Collection (ATCC, Manassas, VA, USA) (strain ATCC 17978, fatal meningitis; and strain ATCC 19606, urine).
(§4) The minimal inhibitory concentration (MIC) is defined as the lowest peptide concentration that inhibited bacterial growth. MICs were measured by a standard microtiter dilution method in Mueller Hinton (MH) medium. Briefly, cells were grown overnight at 37 °C in MH broth and were diluted in the same medium. Serial dilutions of the peptides were added to the microtiter plates in a volume of 50 µL, followed by the addition of 50 µL of bacteria to give a final inoculum of 5 × 10^5 colony-forming units (CFU)/mL. The plates were incubated at 37 °C for 24 h, and the MICs were determined.
Antibacterial activities against six strains of P. aeruginosa and eleven strains of A. baumannii are compared in Table 3. Geometric mean of MIC values was calculated to provide an overall view of antimicrobial activity of different analogs. It is clear that our peptides were effective in killing the microorganisms tested. Compared to a dramatic reduction in hemolytic activity, antibacterial activity of D-piscidin 1 and D-dermaseptin S4 analogs against eleven strains of A. baumannii maintained the same level (within 2-fold) upon the substitution of “specificity determinant(s)” (Table 3).

[3] = tested on: A. baumannii strain 884; assay: MIC, microtiter dilution; type: cell-based, Acinetobacter baumannii; details: source axilla; Mueller-Hinton medium, 37 °C, 24 h, 5 × 10^5 CFU/mL; three sets of determinations
Excerpt: as §3, §4

[4] = tested on: A. baumannii strain 821; assay: MIC, microtiter dilution; type: cell-based, Acinetobacter baumannii; details: source urine; Mueller-Hinton medium, 37 °C, 24 h, 5 × 10^5 CFU/mL; three sets of determinations
Excerpt: as §3, §4

[5] = tested on: A. baumannii strain 759; assay: MIC, microtiter dilution; type: cell-based, Acinetobacter baumannii; details: source gluteus; Mueller-Hinton medium, 37 °C, 24 h, 5 × 10^5 CFU/mL; three sets of determinations
Excerpt: as §3, §4

[6] = tested on: A. baumannii strain ATCC 19606; assay: MIC, microtiter dilution; type: cell-based, Acinetobacter baumannii; details: source urine; Mueller-Hinton medium, 37 °C, 24 h, 5 × 10^5 CFU/mL; three sets of determinations
Excerpt: as §3, §4

[7] = tested on: A. baumannii strain 649; assay: MIC, microtiter dilution; type: cell-based, Acinetobacter baumannii; details: source blood; Mueller-Hinton medium, 37 °C, 24 h, 5 × 10^5 CFU/mL; three sets of determinations
Excerpt: as §3, §4

[8] = tested on: A. baumannii strain 899; type: cell-based, Acinetobacter baumannii; details: source perineum; Mueller-Hinton medium, 37 °C, 24 h, 5 × 10^5 CFU/mL; three sets of determinations
Excerpt: as §3, §4

[9] = tested on: A. baumannii strain ATCC 17978; type: cell-based, Acinetobacter baumannii; details: ATCC 17978, 24 h
Excerpt: as §3, §4

[10] = tested on: A. baumannii strain 985; type: cell-based, Acinetobacter baumannii; details: source pleural fluid; Mueller-Hinton medium, 37 °C, 24 h, 5 × 10^5 CFU/mL; three sets of determinations
Excerpt: as §3, §4

[11] = tested on: A. baumannii strain 964; type: cell-based, Acinetobacter baumannii; details: source throat; Mueller-Hinton medium, 37 °C, 24 h, 5 × 10^5 CFU/mL; three sets of determinations
Excerpt: as §3, §4

[12] = tested on: A. baumannii strain 1012; type: cell-based, Acinetobacter baumannii; details: source sputum; Mueller-Hinton medium, 37 °C, 24 h, 5 × 10^5 CFU/mL; three sets of determinations
Excerpt: as §3, §4

[13] = tested on: A. baumannii strain 689; type: cell-based, Acinetobacter baumannii; details: source groin; Mueller-Hinton medium, 37 °C, 24 h, 5 × 10^5 CFU/mL; three sets of determinations
Excerpt: as §3, §4

[14] = tested on: P. aeruginosa strain PAO1; details: source human wound; Mueller-Hinton medium, 37 °C, 24 h, 5 × 10^5 CFU/mL; three sets of determinations
Excerpt: as §1, §2

[15] = tested on: P. aeruginosa strain CP204; details: source cystic fibrosis patient; Mueller-Hinton medium, 37 °C, 24 h, 5 × 10^5 CFU/mL; three sets of determinations
Excerpt: as §1, §2

[16] = tested on: P. aeruginosa strain PAK; details: Mueller-Hinton medium, 37 °C, 24 h, 5 × 10^5 CFU/mL; three sets of determinations
Excerpt: as §1, §2

[17] = tested on: P. aeruginosa strain PA14; details: Mueller-Hinton medium, 37 °C, 24 h, 5 × 10^5 CFU/mL; three sets of determinations
Excerpt: as §1, §2

[18] = tested on: P. aeruginosa strain M2; details: source burn mouse model; Mueller-Hinton medium, 37 °C, 24 h, 5 × 10^5 CFU/mL; three sets of determinations
Excerpt: as §1, §2

[19] = tested on: P. aeruginosa strain WR5; details: source burn patient; Mueller-Hinton medium, 37 °C, 24 h, 5 × 10^5 CFU/mL; three sets of determinations
Excerpt: as §1, §2

[20] = tested on: human erythrocytes; assay: Hemolytic activity (HC50); type: cell-based
Experimental: Hemoglobin release was determined spectrophotometrically at 570 nm.
From these plots, the HC50 values, the peptide concentration that produces 50% hemolysis of human red blood cells after 18 hours in the standard microtiter dilution method was determined.

## CSCC[C@@H](NC(=O)[C@@H](Cc1c[nH]c2ccccc12)NC(=O)[C@@H](CC(C)C)NC(=O)[C@@H](C)N)C(=O)N[C@@H](C(=O)N[C@H](CC(C)C)C(=O)N[C@H](CC(C)C)C(=O)N[C@H](CCCCN)C(=O)N[C@H](CCCCN)C(=O)N[C@@H](C(=O)N[C@H](CC(C)C)C(=O)N[C@H](CCCCN)C(=O)N[C@H](C)C(=O)N[C@H](C)C(=O)N[C@H](C)C(=O)N[C@H](CCCCN)C(=O)N[C@H](C)C(=O)N[C@H](CC(C)C)C(=O)N[C@H](CC(N)=O)C(=O)N[C@H](C)C(=O)N[C@@H](C(=O)N[C@H](CC(C)C)C(=O)N[C@@H](C(=O)NCC(=O)N[C@H](C)C(=O)N[C@H](CC(N)=O)C(=O)N[C@H](C)C(N)=O)C(C)C)C(C)C)C(C)C)[C@H](C)O [D-Dermaseptin S4] (H-[dA][dL][dW][dM][dT][dL][dL][dK][dK][dV][dL][dK][dA][dA][dA][dK][dA][dL][dN][dA][dV][dL][dV]G[dA][dN][dA]-NH2)
[1]
  MIC GM: 12.6 µM (≈ 35 µg/mL)
[2]
  MIC GM: 1.8 µM (≈ 5 µg/mL)
[3]
  MIC 884: 2.8 µM (≈ 7.78 µg/mL)
[4]
  MIC 821: 2.8 µM (≈ 7.78 µg/mL)
[5]
  MIC 759: 1.4 µM (≈ 3.89 µg/mL)
[6]
  MIC ATCC19606: 2.8 µM (≈ 7.78 µg/mL)
[7]
  MIC 649: 1.4 µM (≈ 3.89 µg/mL)
[8]
  MIC 899: 1.4 µM (≈ 3.89 µg/mL)
[9]
  MIC ATCC17978: 2.8 µM (≈ 7.78 µg/mL)
[10]
  MIC 985: 0.7 µM (≈ 1.94 µg/mL)
[11]
  MIC 964: 1.4 µM (≈ 3.89 µg/mL)
[12]
  MIC 1012: 2.8 µM (≈ 7.78 µg/mL)
[13]
  MIC 689: 1.4 µM (≈ 3.89 µg/mL)
[14]
  MIC PAO1: 11.3 µM (≈ 31.4 µg/mL)
[15]
  MIC CP204: 11.3 µM (≈ 31.4 µg/mL)
[16]
  MIC PAK: 11.3 µM (≈ 31.4 µg/mL)
[17]
  MIC PA14: 22.5 µM (≈ 62.5 µg/mL)
[18]
  MIC M2: 11.3 µM (≈ 31.4 µg/mL)
[19]
  MIC WR5: 11.3 µM (≈ 31.4 µg/mL)
[20]
  Hemolytic activity Fold improvement in HC50: 1.0 fold
[20]; concentration giving 50% hemolysis after 18 h at 37 °C, 1% human erythrocytes in PBS pH 7.4, hemoglobin release at 570 nm, 100% control water (Figure 7)
  Hemolytic activity HC50: 0.6 µM
